# Reference: article PMC12649549, “Sequence Permutation Generated Lysine and Tryptophan-Rich Antimicrobial Peptides with Enhanced Therapeutic Index” (Antibiotics, 2025)
# Like-named read-outs stand apart in the source and are kept apart here.
# Columns and labels:
# S. aureus ATCC 6538 = test system: S. aureus ATCC 6538
# Procedure, shortened: (§1)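 MICs came from CLSI broth microdilution, with 5 × 10^5 CFU/mL bacteria exposed to peptide at final 0.78–50 µg/mL. Media were MH broth or LYM broth (pH 7.4), the latter also adjusted for salt (NaCl 50–300 mM, MgCl2 0.5–2.5 mM) or acidity (pH 4.5–6.5); triplicate independent experiments.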
# S. aureus ATCC 33593 = test system: S. aureus ATCC 33593
# Procedure, shortened: as §1
# [1] = test system: Escherichia coli (ATCC 25922)
# Procedure, shortened: as §1
# [2] = test system: A. baumannii 14B00100 (Acinetobacter sp., BCRC number 14B0100)
# Procedure, shortened: as §1
# S. aureus ATCC 25923 = test system: S. aureus ATCC 25923
# Procedure, shortened: as §1
# [3] = test system: A. baumannii 14B0091 (Acinetobacter sp., BCRC number 14B0091)
# Procedure, shortened: as §1
# S. aureus ATCC 33591 = test system: S. aureus ATCC 33591
# Procedure, shortened: as §1
# [4] = test system: A. baumannii 14B0097 (Acinetobacter sp., BCRC number 14B0097)
# Procedure, shortened: as §1
# [5] = LYM broth, 0 mM NaCl, 16 h, 37 °C
# [6] = LYM broth, 50 mM NaCl, 16 h, 37 °C
# [7] = LYM broth, 100 mM NaCl, 16 h, 37 °C
# [8] = LYM broth, 200 mM (NaCl), 16 h, 37 °C
# [9] = LYM broth, 300 mM (NaCl), 16 h, 37 °C
# [10] = MH broth, 5 × 10^5 CFU/mL, 16 h, 37 °C, repeated three times
substance,measurement,setting,value
Ac-KKKWRKWLKWLAK-NH2 [Peptide W5K12],MIC,S. aureus ATCC 6538; [5],1.56 µg/mL
same,MIC,"S. aureus ATCC 6538; LYM broth, 0.5 mM MgCl2",1.56 µg/mL
same,MIC,"S. aureus ATCC 6538; LYM broth, 1.5 mM MgCl2",1.56 µg/mL
same,MIC,"S. aureus ATCC 6538; LYM broth, 2.5 mM MgCl2",1.56 µg/mL
same,MIC,S. aureus ATCC 6538; [6],1.56 µg/mL
same,MIC,S. aureus ATCC 6538; [7],3.13 µg/mL
same,MIC,S. aureus ATCC 6538; [8],6.25 µg/mL
same,MIC,S. aureus ATCC 6538; [9],12.5 µg/mL
same,MIC,"S. aureus ATCC 6538; LYM broth, pH 4.5",3.13 µg/mL
same,MIC,"S. aureus ATCC 6538; LYM broth, pH 5.5",1.56 µg/mL
same,MIC,"S. aureus ATCC 6538; LYM broth, pH 6.5",1.56 µg/mL
same,MIC,S. aureus ATCC 6538; [10],3.13 µg/mL
same,MIC,S. aureus ATCC 33593; [5],3.13 µg/mL
same,MIC,"S. aureus ATCC 33593; LYM broth, 0.5 mM MgCl2",3.13 µg/mL
same,MIC,"S. aureus ATCC 33593; LYM broth, 1.5 mM MgCl2",3.13 µg/mL
same,MIC,"S. aureus ATCC 33593; LYM broth, 2.5 mM MgCl2",3.13 µg/mL
same,MIC,S. aureus ATCC 33593; [6],3.13 µg/mL
same,MIC,S. aureus ATCC 33593; [7],3.13 µg/mL
same,MIC,S. aureus ATCC 33593; [8],6.25 µg/mL
same,MIC,S. aureus ATCC 33593; [9],12.5 µg/mL
same,MIC,"S. aureus ATCC 33593; LYM broth, pH 4.5",3.13 µg/mL
same,MIC,"S. aureus ATCC 33593; LYM broth, pH 5.5",1.56 µg/mL
same,MIC,"S. aureus ATCC 33593; LYM broth, pH 6.5",1.56 µg/mL
same,MIC,S. aureus ATCC 33593; [10],6.25 µg/mL
same,MIC,[1]; [5],1.56 µg/mL
same,MIC,"[1]; LYM broth, 0.5 mM MgCl2",3.13 µg/mL
same,MIC,"[1]; LYM broth, 1.5 mM MgCl2",3.13 µg/mL
same,MIC,"[1]; LYM broth, 2.5 mM MgCl2",3.13 µg/mL
same,MIC,[1]; [6],3.13 µg/mL
same,MIC,[1]; [7],3.13 µg/mL
same,MIC,[1]; [8],6.25 µg/mL
same,MIC,[1]; [9],12.5 µg/mL
same,MIC,"[1]; LYM broth, pH 4.5",1.56 µg/mL
same,MIC,"[1]; LYM broth, pH 5.5",1.56 µg/mL
same,MIC,"[1]; LYM broth, pH 6.5",1.56 µg/mL
same,MIC,[1]; [10],3.13 µg/mL
same,MIC,[2]; [5],1.56 µg/mL
same,MIC,"[2]; LYM broth, 0.5 mM MgCl2",1.56 µg/mL
same,MIC,"[2]; LYM broth, 1.5 mM MgCl2",1.56 µg/mL
same,MIC,"[2]; LYM broth, 2.5 mM MgCl2",3.13 µg/mL
same,MIC,[2]; [6],1.56 µg/mL
same,MIC,[2]; [7],1.56 µg/mL
same,MIC,[2]; [8],1.56 µg/mL
same,MIC,[2]; [9],1.56 µg/mL
same,MIC,"[2]; LYM broth, pH 4.5",3.13 µg/mL
same,MIC,"[2]; LYM broth, pH 5.5",3.13 µg/mL
same,MIC,"[2]; LYM broth, pH 6.5",1.56 µg/mL
same,MIC,[2]; [10],3.13 µg/mL
same,MIC,S. aureus ATCC 25923; [5],1.56 µg/mL
same,MIC,"S. aureus ATCC 25923; LYM broth, 0.5 mM MgCl2",1.56 µg/mL
same,MIC,"S. aureus ATCC 25923; LYM broth, 1.5 mM MgCl2",3.13 µg/mL
same,MIC,"S. aureus ATCC 25923; LYM broth, 2.5 mM MgCl2",3.13 µg/mL
same,MIC,S. aureus ATCC 25923; [6],3.13 µg/mL
same,MIC,S. aureus ATCC 25923; [7],3.13 µg/mL
same,MIC,S. aureus ATCC 25923; [8],6.25 µg/mL
same,MIC,S. aureus ATCC 25923; [9],12.5 µg/mL
same,MIC,"S. aureus ATCC 25923; LYM broth, pH 4.5",3.13 µg/mL
same,MIC,"S. aureus ATCC 25923; LYM broth, pH 5.5",3.13 µg/mL
same,MIC,"S. aureus ATCC 25923; LYM broth, pH 6.5",1.56 µg/mL
same,MIC,S. aureus ATCC 25923; [10],3.13 µg/mL
same,MIC,[3]; [5],1.56 µg/mL
same,MIC,"[3]; LYM broth, 0.5 mM MgCl2",1.56 µg/mL
same,MIC,"[3]; LYM broth, 1.5 mM MgCl2",1.56 µg/mL
same,MIC,"[3]; LYM broth, 2.5 mM MgCl2",1.56 µg/mL
same,MIC,[3]; [6],1.56 µg/mL
same,MIC,[3]; [7],1.56 µg/mL
same,MIC,[3]; [8],1.56 µg/mL
same,MIC,[3]; [9],3.13 µg/mL
same,MIC,"[3]; LYM broth, pH 4.5",3.13 µg/mL
same,MIC,"[3]; LYM broth, pH 5.5",3.13 µg/mL
same,MIC,"[3]; LYM broth, pH 6.5",1.56 µg/mL
same,MIC,[3]; [10],1.56 µg/mL
same,MIC,S. aureus ATCC 33591; [5],3.13 µg/mL
same,MIC,"S. aureus ATCC 33591; LYM broth, 0.5 mM MgCl2",3.13 µg/mL
same,MIC,"S. aureus ATCC 33591; LYM broth, 1.5 mM MgCl2",3.13 µg/mL
same,MIC,"S. aureus ATCC 33591; LYM broth, 2.5 mM MgCl2",3.13 µg/mL
same,MIC,S. aureus ATCC 33591; [6],3.13 µg/mL
same,MIC,S. aureus ATCC 33591; [7],3.13 µg/mL
same,MIC,S. aureus ATCC 33591; [8],6.25 µg/mL
same,MIC,S. aureus ATCC 33591; [9],12.5 µg/mL
same,MIC,"S. aureus ATCC 33591; LYM broth, pH 4.5",3.13 µg/mL
same,MIC,"S. aureus ATCC 33591; LYM broth, pH 5.5",3.13 µg/mL
same,MIC,"S. aureus ATCC 33591; LYM broth, pH 6.5",3.13 µg/mL
same,MIC,S. aureus ATCC 33591; [10],6.25 µg/mL
same,MIC,[4]; [5],1.56 µg/mL
same,MIC,"[4]; LYM broth, 0.5 mM MgCl2",1.56 µg/mL
same,MIC,"[4]; LYM broth, 1.5 mM MgCl2",1.56 µg/mL
same,MIC,"[4]; LYM broth, 2.5 mM MgCl2",3.13 µg/mL
same,MIC,[4]; [6],1.56 µg/mL
same,MIC,[4]; [7],1.56 µg/mL
same,MIC,[4]; [8],1.56 µg/mL
same,MIC,[4]; [9],3.13 µg/mL
same,MIC,"[4]; LYM broth, pH 4.5",3.13 µg/mL
same,MIC,"[4]; LYM broth, pH 5.5",3.13 µg/mL
same,MIC,"[4]; LYM broth, pH 6.5",1.56 µg/mL
same,MIC,[4]; [10],1.56 µg/mL
